According to ChEMBL document CHEMBL1134210, “Synthesis and biological activities of potential metabolites of the non-nucleoside reverse transcriptase inhibitor efavirenz” (Bioorg Med Chem Lett, 2001):
pIC50: −log10 of the molar value.

Legend:
Nucleic Acid = experiment: Inhibitory activity against RNA; type: functional
[1] = target: Human immunodeficiency virus type 1 reverse transcriptase (Human immunodeficiency virus 1, UniProt Q72547); experiment: Inhibitory activity against HIV-1 reverse transcriptase

IC90 (Nucleic Acid) [nM]	pIC50 [1]	Structure (SMILES)
1.7	–	O=C1Nc2ccc(Cl)cc2[C@@](C#CC2CC2)(C(F)(F)F)O1
63	5.63	O=C1Nc2c(O)cc(Cl)cc2[C@@](C#CC2CC2)(C(F)(F)F)O1
1010	4.90	O=C1Nc2c(OS(=O)(=O)O)cc(Cl)cc2[C@@](C#CC2CC2)(C(F)(F)F)O1.c1ccncc1
> 1510	< 4.90	O=C1Nc2c(O)cc(Cl)cc2C(C#CC2CC2)(C(F)(F)F)O1 (single isomer, unassigned)
422	5.61	O=C1Nc2cc(O)c(Cl)cc2C(C#CC2CC2)(C(F)(F)F)O1 (stereo not drawn)
> 985	5.02	O=C1Nc2c(O[C@@H]3O[C@H](C(=O)O)[C@@H](O)[C@H](O)[C@H]3O)cc(Cl)cc2[C@@](C#CC2CC2)(C(F)(F)F)O1
33	5.70	O=C1Nc2ccc(Cl)cc2C(C#CC2(O)CC2)(C(F)(F)F)O1 (stereo not drawn)
